# Data as given in patent publication EP4722219A1 (Gan & Lee Pharmaceuticals Co., Ltd., priority 2023, dated 2024).
# Target: CRBN protein (Homo sapiens, UniProt Q96SW2)
# Assay: Binding activity to E3 ubiquitin ligase CRBN (HTRF competitive binding kit, Thalidomide-Red)
# Details: not given
# Excerpt: Binding activity of the E3 ligase inhibitor disclosed in the present invention to E3 ubiquitin ligase CRBN
# CRBN binding activity test kit (CEREBLON BINDING KITS (PE, 64BD CRBN PEG).
# The detection is based on homogeneous time-resolved fluorescence (HTRF) technology.
# This kit uses a europium-labeled GST antibody (GST Eu Cryptate Antibody) as the donor and XL665-labeled thalidomide (Thalidomide-Red reagent) as the receptor. The donor binds to the GST-tagged CRBN protein.
# The donor and receptor were each diluted 50-fold using the buffer provided in the kit (PROTAC binding buffer 1). The CRBN protein was diluted 45-fold. An 8mM solution of the compound disclosed herein was diluted 10-fold using the diluent provided in the kit (1X diluent), followed by 7 successive 5-fold serial dilutions of the resulting solution.
# The ratio of the acceptor and donor emission signals was calculated for each individual well.
# IC50 values was calculated based on compound concentration, Ratio, and coefficient of variation using GraphPad Prism.
row,Structure (SMILES),IC50
1,"O=C1CC[C@H](NC(=O)c2cc3c(cc2F)CCC2(CNC2)O3)C(=O)N1 [Compound A7, (S)-N-(2,6-dioxopiperidin-3-yl)-6-fluoro-spiroazetidine-3,2-dihydropyridine-7-carboxamide]",27.4 µM
2,"COc1cc2c(cc1C(=O)N[C@H]1CCC(=O)NC1=O)OCC21CCNCC1 [Compound A10, (S)-N-(2,6-dioxohesperidin-3-yl)-5-methoxy-2H-spiro[benzofuran-3,4'-piperidine]-6-carboxamide]",24.5 µM
3,"COc1cc2c(cc1C(=O)N[C@H]1CCC(=O)NC1=O)OC1(CCNCC1)CC2 [Compound A12, (S)-N-(2,6-dioxohesperidin-3-yl)-6-methoxyspiro[chroman-2,4'-pyridine]-7-carboxamide]",20.3 µM
4,O=C1CC[C@H](NC(=O)c2ccc3c(c2)OC[C@@H]2CNCCN32)C(=O)N1 [Compound B1],40.3 µM
5,"COc1cc2c(cc1C(=O)N[C@H]1CCC(=O)NC1=O)OC[C@H]1CNCCN21 [Compound B4, (R)-N-((S)-2,6-Dioxyhesperidin-3-yl)-O-9-methoxy-1,2,3,4,4a,5-hexahydrobenzo[b]pyrazino[1,2-d][1,4]oxazine-8-carboxamide]",10.9 µM
6,"O=C1CC[C@H](NC(=O)c2ccc3c(c2F)OC[C@H]2CNCCN32)C(=O)N1 [Compound B5, (R)-N-((S)-2,6-Dioxyhesperidin-3-yl)-7-fluoro-1,2,3,4,4,4a,5-hexahydrobenzo[b]pyrazino[1,2-d][1,4]oxazine-8-carboxamide]",60 µM
7,"COc1c(C(=O)N[C@H]2CCC(=O)NC2=O)ccc2c1OC[C@H]1CNCCN21 [Compound B6, (R)-N-((S)-2,6-Dioxyhesperidin-3-yl)-7-methoxy-1,2,3,4,4a,5-hexahydrobenzo[b]pyrazino[1,2-d][1,4]oxazine-8-carboxamide]",49.1 µM
8,"COc1cc2c(cc1C(=O)N[C@H]1CCC(=O)NC1=O)OCC[C@H]1CNCCN21 [Compound B9, (S)-N-((S)-2,6-Dioxopiperidin-3-yl)-10-methoxy-2,3,4,4a,5,6-hexahydro-1H-benzo[b]pyrazine[1,2-d][1,4]oxazepine-9-carboxamide]",13 µM
9,"COc1cc2c(cc1C(=O)N[C@H]1CCC(=O)NC1=O)COC[C@H]1CNCCN21 [Compound B10, (R)-N-((S)-2,6-Dioxopiperidin-3-yl)-10-methoxy-1,2,3,4,4a,5-hexahydro-7H-benzo[e]pyrazino[2,1-c][1,4]oxacyclopropane-9-amide]",22.4 µM
10,"Cn1c(=O)n(C2CCC(=O)NC2=O)c2ccc3c(c21)C1(CCNCC1)CO3 (centres unmarked) [Compound D4, 3-(1-Methyl-2-oxo-1,2-dihydro-3H,7H-spiro[benzofuran[4,5-d]imidazole-8,4'-piperidine]-3-yl)piperidine-2,6-dione]",2.3 µM
11,Cn1c(=O)n(C2CCC(=O)NC2=O)c2cc3c(cc21)OC1(CCNCC1)CC3 (centres unmarked) [Compound D5],0.66 µM
12,O=C1CCC(N2Cc3c(ccc4c3OCC43CCC4(CCNCC4)CC3)C2=O)C(=O)N1 (centres unmarked) [Compound D8],0.56 µM

# Same assay, conditions: competition with XL665-labeled thalidomide for GST-tagged CRBN protein, HTRF, 3 hours at room temperature
row,Structure (SMILES),IC50
1,"COc1c(C(=O)N[C@H]2CCC(=O)NC2=O)ccc2c1OCC21CCNCC1 [Compound A8, (S)-N-(2,6-dioxohesperidin-3-yl)-7-methoxy-2H-spiro[benzofuran-3,4'-piperidine]-6-carboxamide]",24.6 µM
2,"COc1cc2c(cc1C(=O)N[C@H]1CCC(=O)NC1=O)CCC1(CCNCC1)O2 [Compound A11, (S)-N-(2,6-dioxyhesperidin-3-yl)-7-methoxyspiro[chroman-2,4'-piperidine]-6-carboxamide]",14.4 µM
3,"CN(C(=O)c1ccc2c(c1)OC[C@H]1CNCCN21)[C@H]1CCC(=O)NC1=O [Compound B7, (R)-N-((S)-2,6-Dioxyhesperidin-3-yl)-N-methyl-1,2,3,4,4a,5-hexahydrobenzo[b]pyrazino[1,2-d][1,4]oxazine-8-carboxamide]",5.32 µM
4,O=C1CCC(Nc2ccc3c(c2)CCC2(CCNCC2)O3)C(=O)N1 (centres unmarked) [Compound C3],5.53 µM
5,"O=C1CCC(Nc2ccc3c(c2)OC2(CCNCC2)CC3)C(=O)N1 (centres unmarked) [Compound C4, 3-(Spiro[2,4'-piperidino]-7-ylamino)piperidine-2,6-dione]",10.1 µM

# Same assay, conditions: competition with XL665-labeled thalidomide for GST-tagged CRBN protein, HTRF, 3 hours at room temperature; read-out: IC50
row,IC50,Structure (SMILES)
1,35.3 µM,"O=C1CC[C@H](NC(=O)c2cc3c(cc2F)CCC2(CCNCC2)O3)C(=O)N1 [Compound A6, (S)-N-(2,6-dioxopiperidin-3-yl)-6-fluorospiro[chroman-2,4'-piperidine]-7-carboxamide]"
2,29.1 µM,"COc1cc2c(cc1C(=O)N[C@H]1CCC(=O)NC1=O)C1(CCNCC1)CO2 [Compound A9, (S)-N-(2,6-dioxopiperidin-3-yl)-6-methoxy-2H-spiro[benzofuran-3,4'-piperidine]-5-carboxamide]"
3,60.2 µM,O=C1CC[C@H](NC(=O)c2ccc3c(c2)OC[C@H]2CNCCN32)C(=O)N1 [Compound B2]
4,45.1 µM,"O=C1CC[C@H](NC(=O)c2cc3c(cc2F)N2CCNC[C@@H]2CO3)C(=O)N1 [Compound B3, (R)-N-((S)-2,6-dioxyhesperidin-3-yl)-9-fluoro-1,2,3,4,4,4a,5-hexahydrobenzo[b]pyrazino[1,2-d][1,4]oxazine-8-carboxamide]"
5,27 µM,"O=C1CC[C@H](NC(=O)c2cc3c(cc2F)N2CCNC[C@H]2CO3)C(=O)N1 [Compound B8, (S)-N-((S)-2,6-Dioxyhesperidin-3-yl)-9-fluoro-1,2,3,4,4,4a,5-hexahydrobenzo[b]pyrazino[1,2-d][1,4]oxazine-8-carboxamide]"
6,54.8 µM,"O=C1CC[C@H](NC(=O)c2ccc3c(c2)OCC[C@H]2CNCCN32)C(=O)N1 [Compound B11, (S)-N-((S)-2,6-Dioxopiperidin-3-yl)-2,3,4,4a,5,6-hexahydro-1H-benzo[b]pyrazino[1,2-d][1,4]oxazepine-9-carboxamide]"
7,1.9 µM,O=C1CCC(Nc2ccc3c(c2)OCC32CCNCC2)C(=O)N1 (centres unmarked) [Compound C1]
8,90.5 µM,"O=C1CCC(Nc2ccc3c(c2)C2(CCNCC2)CO3)C(=O)N1 (centres unmarked) [Compound C2, 3-((2H-spiro[benzofuran-3,4'-piperidine]-5-yl)amino)piperidine-2,6-dione]"
9,5.45 µM,"O=C1CCC(Nc2ccc3c(c2)OC2(CCNCC2)C3)C(=O)N1 (centres unmarked) [Compound C5, 3-((3H-spiro[benzofuran-2,4'-piperidine]-6-yl)amino)piperidine-2,6-dione]"
10,3.38 µM,"O=C1CCC(Nc2ccc3c(c2)OCC2(CCNCC2)C3)C(=O)N1 (centres unmarked) [Compound C6, 3-(Spiro[benzopyran-3,4'-piperidine]-7-ylamino)piperidine-2,6-dione]"
11,10.2 µM,"O=C1CCC(Nc2ccc3c(c2)OC2(CC3)CNC2)C(=O)N1 (centres unmarked) [Compound C7, 3-(Spiro[azetidin-3,2'-chroman]-7'-ylamino)piperidine-2,6-dione]"
12,16.4 µM,"O=C1CCC(Nc2ccc3c(c2)CC2(CCNCC2)O3)C(=O)N1 (centres unmarked) [Compound C8, 3-((3H-spiro[benzofuran-2,4'-piperidine]-5-yl)amino)piperidine-2,6-dione]"
13,12.8 µM,"O=C1CCC(Nc2ccc3c(c2)N2CCNC[C@@H]2CO3)C(=O)N1 (stereo partly drawn) [Compound C9, 3-(((R)-1,2,3,4,4a,5-Hexahydrobenzo[b]pyrazine[1,2-d][1,4]oxazine-9-yl)amino)piperidine-2,6-dione]"
14,2.06 µM,"CN(c1ccc2c(c1)OC[C@H]1CNCCN21)C1CCC(=O)NC1=O (stereo partly drawn) [Compound C10, 3-(((R)-1,2,3,4,4a,5-Hexahydrobenzo[b]pyrazino[1,2-d][1,4]oxazine-8-yl)(methyl)amino)piperidine-2,6-dione]"
15,21.1 µM,"O=C1CCC(Nc2ccc3c(c2)N2CCNC[C@@H]2CCO3)C(=O)N1 (stereo partly drawn) [Compound C11, 3-(((S)-2,3,4,4a,5,6-Hexahydro-1H-benzo[b]pyrazine[1,2-d][1,4]oxacyclopropane-10-yl)amino)piperidine-2,6-dione]"
16,5.46 µM,O=C1CCC(Nc2ccc3c(c2)OCC[C@H]2CNCCN32)C(=O)N1 (some centres unmarked) [Compound C12]
17,8.39 µM,O=C1CCC(Nc2ccc3c(c2)COC[C@H]2CNCCN32)C(=O)N1 (some centres unmarked) [Compound C13]
18,1.85 µM,CN(c1ccc2c(c1)COC[C@H]1CNCCN21)C1CCC(=O)NC1=O (some centres unmarked) [Compound C14]
19,0.72 µM,"CN(c1ccc2c(c1)OCC21CCNCC1)C1CCC(=O)NC1=O (centres unmarked) [Compound C15, 3-(Methyl(2H-spiro[benzofuran-3,4'-piperidine]-6-yl)amino)piperidine-2,6-dione]"
20,2.16 µM,"O=C1CCC(Nc2ccc3c(c2)OC[C@@H]2CNCCN32)C(=O)N1 (stereo partly drawn) [Compound C16, 3-(((S)-1,2,3,4,4a,5-hexahydrobenzo[b]pyrazine[1,2-d][1,4]oxazine-8-yl)amino)piperidine-2,6-dione]"
21,0.028 µM,"Cn1c(=O)n(C2CCC(=O)NC2=O)c2ccc3c(c21)OCC31CCNCC1 (centres unmarked) [Compound D2, 3-(1-Methyl-2-oxo-1,2-dihydro-3H,7H-spiro[benzofuro[6,7-d]imidazole-6,4'-piperidine]-3-yl)piperidine-2,6-dione]"
22,0.21 µM,"O=C1CCC(n2c(=O)n3c4c(cccc42)NCC3)C(=O)N1 (centres unmarked) [Compound D3, 3-(2-oxo-5,6-dihydro-4H-imidazo[1,5,4-de]quinoxalin-1(2H)-yl)piperidine-2,6-dione]"
23,0.4 µM,Cn1c(=O)n(C2CCC(=O)NC2=O)c2ccc3c(c21)OC[C@H]1CNCCN31 (some centres unmarked) [Compound D7]
24,0.65 µM,"O=C1CCC(N2Cc3c(ccc4c3OCC43CCC4(CC3)CNC4)C2=O)C(=O)N1 (centres unmarked) [Compound D9, 3-(6''-oxo-6''-,8''-dihydro-2''-H,7''-H-dipyrazolo[azetidin-3,1'-cyclohexane-4'-, 3""-furan[2,3-e]isoindole]-7""-yl)piperidine-2,6-dione]"
